Read-outs that look alike come from different tables or passages of the source.
System: CSM14.1 cells
Experiment: Primary HTS assay: ATP content (ATPlite) of undifferentiated CSM14.1 cells challenged with thapsigargin
Type: cell-based, rat
Conditions: for IC50: thapsigargin-induced death of undifferentiated CSM14.1, ATP content
Procedure, shortened: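 Undifferentiated CSM14.1 cells, 3,000/well, cultured overnight at 32 °C, then test compounds at ~15 μg/mL final (1% DMSO) added. Thapsigargin ~15 μM final given after 2 h; ATPlite luminescence read after 24 h as survival surrogate, with 100 μM Salubrinal as maximum and DMSO as minimum.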

[1] = first assay, read-out: IC50 (μM), first value
[2] = one value given, read-out: IC50
[3] = second assay (value in bold), read-out: IC50 (μM), value from a second assay

Compound	IC50 [1] [µM]	IC50 [2] [µM]	IC50 [3] [µM]	Cytoprotective activity, stimulus Thapsigargin (Result) (readout ATP & Annexin, CSM 14.1, compound ≦25 μM)
COc1ccc(C2CC(=O)C3=C(C2)Nc2ccccc2NC3c2cccc(Oc3ccccc3)c2)cc1OC (centres unmarked) [Compound 6239507]	13.9 ± 0.26	10.2 ± 1.62	10.2 ± 1.62	
CCN(CC)c1ccc(C2Nc3ccccc3NC3=C2C(=O)CC(c2ccccc2)C3)cc1 (centres unmarked) [Compound 5962123, 6-(4-diethylaminophenyl)-9-phenyl-5,6,8,9,10,11-hexahydrobenzo[c][1,5]benzodiazepin-7-one]		7.5 ± 0.857		+ (+indicates ≧50% rescue of cell viability relative to untreated cells not exposed to thapsigargin at compound concentration of ≦25 μM)
COc1ccc(C2CC(=O)C3=C(C2)Nc2ccccc2NC3c2ccccc2C(F)(F)F)cc1OC (centres unmarked) [Compound 6237735]	17.2 ± 0.471	12.5 ± 0.186	12.5 ± 0.186	

Reference: patent US20080293699A1, “Inhibitors of thapsigargin-induced cell death” (priority 2007, published 2008)
